Experimental data taken from US20220281846A1, “COMPOUNDS AND COMPOSITIONS FOR THE TREATMENT OF RESPIRATORY DISEASES” (THE UNIVERSITY OF MELBOURNE, priority 2018, published 2022).

Columns and labels:
[1] = target: T1, human recombinant Casein kinase 18 (CK1δ) (Homo sapiens, UniProt P48730); experiment: Kinase inhibition assay (HotSpot, Reaction Biology Corp), CK1δ; type: biochemical; conditions: 10 μM ATP, 10-dose IC50 mode; read-out: Compound IC50 (M) CK1δ
T1 construct: purchased Reaction Biology Corp

[2] = target: T2, ERBB4/HER4 (Homo sapiens, UniProt Q15303); experiment: Kinase inhibition assay (HotSpot), ERBB4/HER4; type: biochemical; conditions: 10 μM ATP, 10-dose IC50 mode; read-out: Compound IC50 (M) ERBB4/HER4
T2 construct: purchased Reaction Biology Corp

[3] = target: T3, MINK/MINK1 (Homo sapiens, UniProt Q8N4C8); experiment: Kinase inhibition assay (HotSpot), MINK/MINK1; type: biochemical; conditions: 10 μM ATP, 10-dose IC50 mode; read-out: Compound IC50 (M) MINK/MINK1
T3 construct: purchased Reaction Biology Corp

[4] = system: TGF-β-induced IL-11 in primary human parenchymal fibroblast cells (pFbs); experiment: Human parenchymal fibroblast cell assay, TGF-β-induced IL-11 (ELISA); type: cell-based; conditions: compounds 0.1-10 μM 30 min prior to TGF-β1, 16-24 hours, 4.00* is assigned to compounds that failed to cause 50% or more inhibition at 10 µM, read-out: pIC50 IL-11 suppression (converted)
Method: Human Parenchymal Fibroblast Cell Assay
Primary human parenchymal fibroblast cells (pFbs) were cultured from parenchyma of lung resection specimens and from non-transplanted lungs of donors without chronic respiratory disease. pFbs were passaged in Dulbecco's Modified Eagle's Media (DMEM) containing 10% (v/v) heat-inactivated fetal calf serum (FCS), 15 mM HEPES, 0.2% (v/v) sodium bicarbonate, 2 mM L-glutamine, 1% (v/v) non-essential amino acids, 1% (v/v) sodium pyruvate, 2.5 μg/mL amphotericin, 5 IU/mL penicillin and 50 μg/mL streptomycin. In some experiments the human lung fibroblast cell line, MRC5 (sourced from ATTC) was used as indicated. The MRC5 line was maintained under the same conditions as described for the pFb.
Prior to experimentation, pFb were incubated in serum-free DMEM containing 0.25% bovine serum albumin (BSA) and insulin-transferrin-selenium-containing supplement (Monomed A; CSL, Parkville, Melbourne, Australia). The cells were incubated with small molecular CK1δ inhibitors (0.1-10 μM) for 30 min prior to […] TGF-β1 (R&D Systems, Minneapolis, Minn.) and the incubation continued for 16-24 hours prior to harvest of supernatant for detection of immunoreactive IL-11. Stock solutions were made as 10 mM in 100% DMSO and diluted to the required concentration in medium containing 0.1% DMSO (final concentration).
Supernatants were collected for measurement of IL-11 (R&D DuoSet, DY218) by ELISA following the manufacturers' instructions. Generally, capture antibodies were initially diluted to the recommended concentrations using PBS buffer, and then used to coat the wells of 96-well microplates (Greiner, #655061) by adding 50 μL/well and incubated overnight at room temperature. Next day, solutions were discarded and wells were washed 3 times with wash buffer (PBS containing 0.1% (v/v) Tween-20) prior to the addition of 200 μL of blocking solution (PBS containing 1% (v/v) BSA) for 1 hour to block non-specific sites. Plates were then washed 3 times with wash buffer and 50 μL of samples or standards were then added to wells and incubated for 2 hours at room temperature. After the incubation, plates were washed 3 times with wash buffer and 50 μL of detection antibodies were added to wells and incubated for 2 hours at room temperature. Plates were then washed 3 times before adding streptavidin-conjugated horseradish peroxidase (at the recommended concentrations) for 45 min. Plates were then washed 5 times with wash buffer and 100 μL TMB substrate solution (equal parts A and B, BD Biosciences) was added to each well until sufficient signals emerged. The reactions were inactivated by adding 100 μL sulphuric acid (2M H2SO4). The absorbance was measured at 450 nm using the Multiskan Ascent® plate reader. The absorbance of the cytokine standards was fitted to a logistic equation, allowing the concentrations of cytokine in samples to be determined.
PIC50 values (the negative log of the concentration suppressing IL-11 level by 50%) for inhibition of TGF-β-induced IL-11 were interpolated from the linear regression of log concentration small molecule versus IL-11 level (Table 4 and FIG. 2).

T3 sequence (Q8N4C8 whole entry): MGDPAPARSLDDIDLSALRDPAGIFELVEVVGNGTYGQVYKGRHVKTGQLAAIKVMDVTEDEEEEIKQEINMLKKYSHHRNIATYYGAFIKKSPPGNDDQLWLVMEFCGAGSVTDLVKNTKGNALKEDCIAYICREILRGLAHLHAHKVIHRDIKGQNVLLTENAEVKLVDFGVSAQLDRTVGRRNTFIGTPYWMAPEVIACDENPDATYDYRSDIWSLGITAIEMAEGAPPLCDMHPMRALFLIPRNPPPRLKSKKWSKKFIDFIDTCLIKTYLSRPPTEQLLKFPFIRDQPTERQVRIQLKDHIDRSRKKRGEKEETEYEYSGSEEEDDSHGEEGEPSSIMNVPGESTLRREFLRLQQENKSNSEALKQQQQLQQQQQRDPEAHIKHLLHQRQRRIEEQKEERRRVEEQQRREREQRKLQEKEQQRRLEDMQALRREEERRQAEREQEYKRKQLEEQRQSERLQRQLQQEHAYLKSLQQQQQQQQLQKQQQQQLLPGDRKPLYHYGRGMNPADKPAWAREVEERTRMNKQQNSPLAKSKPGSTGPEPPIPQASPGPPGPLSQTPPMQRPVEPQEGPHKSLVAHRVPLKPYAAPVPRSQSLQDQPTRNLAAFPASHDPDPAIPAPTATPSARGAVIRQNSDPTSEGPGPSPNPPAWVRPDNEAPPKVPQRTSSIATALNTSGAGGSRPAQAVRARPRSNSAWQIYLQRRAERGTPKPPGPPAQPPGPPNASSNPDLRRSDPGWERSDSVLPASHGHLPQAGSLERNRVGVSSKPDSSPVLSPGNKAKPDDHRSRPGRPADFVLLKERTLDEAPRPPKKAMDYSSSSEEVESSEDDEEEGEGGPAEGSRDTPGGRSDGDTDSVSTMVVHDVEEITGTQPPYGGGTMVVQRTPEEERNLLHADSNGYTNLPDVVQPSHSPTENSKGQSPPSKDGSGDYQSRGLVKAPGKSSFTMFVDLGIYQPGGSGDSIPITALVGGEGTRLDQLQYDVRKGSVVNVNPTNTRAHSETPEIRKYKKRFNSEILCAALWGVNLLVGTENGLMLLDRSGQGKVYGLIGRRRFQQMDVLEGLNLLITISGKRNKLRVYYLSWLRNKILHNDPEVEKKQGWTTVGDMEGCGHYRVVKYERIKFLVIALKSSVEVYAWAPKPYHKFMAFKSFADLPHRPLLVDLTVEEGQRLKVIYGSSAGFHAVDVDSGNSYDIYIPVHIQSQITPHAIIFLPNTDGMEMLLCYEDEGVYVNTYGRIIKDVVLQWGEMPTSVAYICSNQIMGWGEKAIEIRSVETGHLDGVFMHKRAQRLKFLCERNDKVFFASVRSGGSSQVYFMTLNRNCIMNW
T1 sequence (P48730 whole entry): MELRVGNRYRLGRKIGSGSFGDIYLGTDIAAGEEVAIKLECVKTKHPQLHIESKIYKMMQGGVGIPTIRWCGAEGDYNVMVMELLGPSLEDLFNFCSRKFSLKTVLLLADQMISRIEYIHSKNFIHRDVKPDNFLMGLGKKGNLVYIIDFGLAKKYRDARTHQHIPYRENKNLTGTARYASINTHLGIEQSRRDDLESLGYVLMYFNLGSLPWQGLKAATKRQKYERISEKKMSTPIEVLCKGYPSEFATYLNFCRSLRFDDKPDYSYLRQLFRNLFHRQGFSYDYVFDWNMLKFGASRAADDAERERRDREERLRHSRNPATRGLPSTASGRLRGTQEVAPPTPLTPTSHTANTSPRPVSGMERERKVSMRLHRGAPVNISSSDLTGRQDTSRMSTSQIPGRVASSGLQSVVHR
T2 sequence (Q15303 26-1308): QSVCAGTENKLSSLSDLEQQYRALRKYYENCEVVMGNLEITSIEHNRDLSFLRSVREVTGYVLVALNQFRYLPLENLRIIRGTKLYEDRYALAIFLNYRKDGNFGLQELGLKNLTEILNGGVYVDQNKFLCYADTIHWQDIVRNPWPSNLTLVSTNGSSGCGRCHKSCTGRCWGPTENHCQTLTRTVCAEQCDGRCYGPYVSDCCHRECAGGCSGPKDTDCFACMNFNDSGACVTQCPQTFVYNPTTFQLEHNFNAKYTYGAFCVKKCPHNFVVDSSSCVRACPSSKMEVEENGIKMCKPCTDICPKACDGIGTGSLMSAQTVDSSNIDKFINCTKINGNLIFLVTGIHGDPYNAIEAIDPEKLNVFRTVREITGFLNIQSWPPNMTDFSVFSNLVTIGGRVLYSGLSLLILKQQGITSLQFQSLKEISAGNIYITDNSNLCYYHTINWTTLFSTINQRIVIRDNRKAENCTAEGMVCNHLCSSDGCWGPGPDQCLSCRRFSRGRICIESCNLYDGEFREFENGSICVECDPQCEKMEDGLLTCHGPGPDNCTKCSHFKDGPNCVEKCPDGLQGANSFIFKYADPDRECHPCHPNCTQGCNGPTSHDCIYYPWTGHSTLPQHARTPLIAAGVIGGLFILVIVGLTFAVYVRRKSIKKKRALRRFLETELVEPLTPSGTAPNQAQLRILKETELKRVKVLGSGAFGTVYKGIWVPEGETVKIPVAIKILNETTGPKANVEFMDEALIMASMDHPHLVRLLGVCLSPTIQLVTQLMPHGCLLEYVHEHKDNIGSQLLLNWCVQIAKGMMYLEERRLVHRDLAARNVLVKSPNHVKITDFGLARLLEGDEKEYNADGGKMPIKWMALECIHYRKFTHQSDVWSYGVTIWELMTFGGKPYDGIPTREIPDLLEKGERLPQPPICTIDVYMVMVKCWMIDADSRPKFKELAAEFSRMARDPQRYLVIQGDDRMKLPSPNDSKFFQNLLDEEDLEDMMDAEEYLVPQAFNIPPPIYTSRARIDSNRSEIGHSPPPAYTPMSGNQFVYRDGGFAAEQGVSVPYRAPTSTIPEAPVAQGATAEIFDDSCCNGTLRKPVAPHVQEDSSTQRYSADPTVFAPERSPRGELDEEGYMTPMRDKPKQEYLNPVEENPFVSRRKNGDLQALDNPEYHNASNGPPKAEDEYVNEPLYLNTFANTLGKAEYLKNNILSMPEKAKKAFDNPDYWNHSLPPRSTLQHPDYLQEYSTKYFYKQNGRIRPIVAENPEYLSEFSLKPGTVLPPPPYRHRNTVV

| SMILES | IC50 [1] | IC50 [2] | IC50 [3] | IC50 [4] |
| --- | --- | --- | --- | --- |
| Fc1ccc(-c2ncn(C3CCCCC3)c2-c2ccnc(NC3CC3)n2)cc1 [ZH3-86, 4-(1-Cyclohexyl-4-(4-fluorophenyl)-1H-imidazol-5-yl)-N-cyclopropylpyrimidin-2-amine] | 7.59e-09 M | 1.48e-06 M | 1.06e-08 M | 339 nM |
| CCNc1nccc(-c2c(-c3ccc(F)cc3)ncn2C2CCCCC2)n1 [ZH2-78, 4-(1-Cyclohexyl-4-(4-fluorophenyl)-1H-imidazol-5-yl)-N-ethylpyrimidin-2-amine] | 4.7e-09 M | 7.5e-07 M | 2.26e-08 M | 295 nM |
| Fc1ccc(-c2ncn(C3CCCCC3)c2-c2ccnc(NC3CCOCC3)n2)cc1 [ZH2-54, 4-(1-Cyclohexyl-4-(4-fluorophenyl)-1H-imidazol-5-yl)-N-(tetrahydro-2H-pyran-4-yl)pyrimidin-2-amine] | 1.73e-09 M |  | 1.7e-07 M | 4370 nM |
| Fc1ccc(-c2ncn(C3CCCCC3)c2-c2ccnc(NCc3ccccc3F)n2)cc1 [ZH2-118, 4-(1-Cyclohexyl-4-(4-fluorophenyl)-1H-imidazol-5-yl)-N-(2-fluorobenzyl)pyrimidin-2-amine] | 9.6e-09 M | 3.66e-06 M | 4.21e-08 M | 1450 nM |
| Nc1nccc(-c2c(-c3ccc(F)cc3)ncn2C2CCCC2)n1 [ZH3-58, 4-(1-Cyclopentyl-4-(4-fluorophenyl)-1H-imidazol-5-yl)pyrimidin-2-amine] | 8.33e-09 M | 1.39e-06 M | 2.17e-07 M | 550 nM |
| O=S1(=O)CCC(Nc2nccc(-c3c(-c4ccc(F)cc4)ncn3C3CCCCC3)n2)CC1 [ZH3-134, 4-((4-(1-Cyclohexyl-4-(4-fluorophenyl)-1H-imidazol-5-yl)pyrimidin-2-yl)amino)tetrahydro-2H-thiopyran 1,1-dioxide] | 1.15e-09 M |  | 3.77e-08 M |  |
| OCCNc1nccc(-c2c(-c3ccc(F)cc3)ncn2CC2CCCCC2)n1 [ZH3-118, 2-((4-(1-(Cyclohexylmethyl)-4-(4-fluorophenyl)-1H-imidazol-5-yl)pyrimidin-2-yl)amino)ethan-1-ol] | 2.13e-09 M | 5.13e-07 M | 1.97e-07 M | 8320 nM |
| O[C@H]1C[C@@H](Nc2nccc(-c3c(-c4ccc(F)cc4)ncn3C3CCCCC3)n2)C1 [ZH3-62, cis-3-((4-(1-Cyclohexyl-4-(4-fluorophenyl)-1H-imidazol-5-yl)pyrimidin-2-yl)amino)cyclobutan-1-ol] | 1.31e-09 M | > 1e-05 M | 7.53e-09 M | 1000 nM |
| Fc1ccc(-c2ncn(C3CCCCC3)c2-c2ccnc(NC3CC(F)(F)C3)n2)cc1 [ZH3-70, 4-(1-Cyclohexyl-4-(4-fluorophenyl)-1H-imidazol-5-yl)-N-(3,3-difluorocyclobutyl)pyrimidin-2-amine] | 1e-09 M |  | 2.16e-08 M |  |
| Fc1ccc(-c2ncn(CC3CCCCC3)c2-c2ccnc(NC3COC3)n2)cc1 [ZH3-114, 4-(1-(Cyclohexylmethyl)-4-(4-fluorophenyl)-1H-imidazol-5-yl)-N-(oxetan-3-yl)pyrimidin-2-amine] | 1.17e-09 M | 3e-06 M | 9.44e-08 M | 10500 nM |
| CC(C)(C)Cn1cnc(-c2ccc(F)cc2)c1-c1ccnc(N)n1 [ZH3-78, 4-(4-(4-Fluorophenyl)-1-neopentyl-1H-imidazol-5-yl)pyrimidin-2-amine] | 5.93e-08 M | 8.35e-06 M | 8.09e-07 M | 8510 nM |
| Fc1ccc(-c2ncn(C3CCCCC3)c2-c2ccnc(NC3CCCC3)n2)cc1 [ZH2-46, 4-(1-Cyclohexyl-4-(4-fluorophenyl)-1H-imidazol-5-yl)-N-cyclopentylpyrimidin-2-amine] | 4.99e-09 M | 9.01e-06 M | 6.69e-08 M |  |
| Fc1ccc(-c2ncn(C3CCCCC3)c2-c2ccnc(NCc3cccc(F)c3)n2)cc1 [ZH2-114, 4-(1-Cyclohexyl-4-(4-fluorophenyl)-1H-imidazol-5-yl)-N-(3-fluorobenzyl)pyrimidin-2-amine] | 3.67e-09 M |  | 3.33e-08 M |  |
| Fc1ccc(-c2ncn(C3CCCCC3)c2-c2ccnc(NC3CCC(F)(F)CC3)n2)cc1 [ZH2-146, 4-(1-Cyclohexyl-4-(4-fluorophenyl)-1H-imidazol-5-yl)-N-(4,4-difluorocyclohexyl)pyrimidin-2-amine] | 4.93e-09 M |  | 1.1e-07 M | 11500 nM |
| O[C@H]1C[C@H](Nc2nccc(-c3c(-c4ccc(F)cc4)ncn3C3CCCCC3)n2)C1 [ZH3-50, trans-3-((4-(1-Cyclohexyl-4-(4-fluorophenyl)-1H-imidazol-5-yl)pyrimidin-2-yl)amino)cyclobutan-1-ol] | 1.36e-09 M | 4.41e-06 M | 1.73e-08 M | 417 nM |
| Fc1ccc(-c2ncn(C3CCCCC3)c2-c2ccnc(NC3CCCCC3)n2)cc1 [ZH2-58, N-Cyclohexyl-4-(1-cyclohexyl-4-(4-fluorophenyl)-1H-imidazol-5-yl)pyrimidin-2-amine] | 1.95e-08 M | > 1e-05 M | 2.36e-07 M | 29500 nM |
| Nc1nccc(-c2c(-c3ccc(F)cc3)ncn2CC2CCC(F)(F)CC2)n1 [ZH3-130, 4-(1-((4,4-Difluorocyclohexyl)methyl)-4-(4-fluorophenyl)-1H-imidazol-5-yl)pyrimidin-2-amine] | 6.13e-09 M | 1.42e-06 M | 8.9e-07 M | 832 nM |
| CCn1cnc(-c2ccc(F)cc2)c1-c1ccnc(NC2CCC2)n1 [ZH3-122, N-Cyclobutyl-4-(1-ethyl-4-(4-fluorophenyl)-1H-imidazol-5-yl)pyrimidin-2-amine] | 4.16e-09 M | 4.42e-06 M | 1.83e-08 M | 178 nM |
| Fc1ccc(CNc2nccc(-c3c(-c4ccc(F)cc4)ncn3C3CCCCC3)n2)cc1 [ZH2-122, 4-(1-Cyclohexyl-4-(4-fluorophenyl)-1H-imidazol-5-yl)-N-(4-fluorobenzyl)pyrimidin-2-amine] | 5.07e-09 M |  | 1.95e-08 M | 2450 nM |
